Laboratory results from patent publication US9133099B2, “Compounds and their salts specific to the PPAR receptors and the EGF receptors and their use in the medical field” (Nogra Pharma Limited, priority 2005, dated 2015).

Legend:
PPARγ = molecular target: T1, PPARγ (Homo sapiens, UniProt P37231); assay: PPARγ transcriptional activity, renilla luciferase/PPRE reporter gene in transfected HT-29 cells; format: cell-based; conditions: 24 hours
T1 construct: transient transfections of epithelial cells with the renilla luciferase and PPRE plamids; endogenous in cells; host or cells: HT-29 human colon carcinoma cells
T1 sequence (P37231 1-505): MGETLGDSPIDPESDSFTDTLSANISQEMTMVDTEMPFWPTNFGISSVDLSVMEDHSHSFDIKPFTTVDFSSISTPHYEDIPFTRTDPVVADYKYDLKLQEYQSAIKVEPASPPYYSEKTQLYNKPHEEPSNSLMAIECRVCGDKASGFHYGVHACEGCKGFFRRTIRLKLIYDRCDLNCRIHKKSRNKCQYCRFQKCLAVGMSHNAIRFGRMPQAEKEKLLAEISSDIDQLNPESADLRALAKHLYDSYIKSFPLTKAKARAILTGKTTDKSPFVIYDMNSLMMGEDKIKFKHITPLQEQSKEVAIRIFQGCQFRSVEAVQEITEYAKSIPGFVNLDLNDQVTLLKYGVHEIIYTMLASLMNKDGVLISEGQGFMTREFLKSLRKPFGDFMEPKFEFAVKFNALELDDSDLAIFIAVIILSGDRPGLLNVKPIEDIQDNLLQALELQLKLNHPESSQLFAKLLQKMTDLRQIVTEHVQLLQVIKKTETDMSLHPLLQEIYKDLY
Procedure: Activation of PPARγ results in a cascade of reactions leading to a binding to specific DNA sequence elements termed peroxisome proliferator response elements (PPRE) (7-9).
We investigated PPARγ transcriptional activity by transient transfections of epithelial cells with the renilla luciferase and PPRE plamids. To evaluate if the new molecules have more efficacy than 5-ASA to stimulate PPARγ activation, we tested these molecules at a concentration of 1 mM. […] Cells were stimulated with the different molecules during 24 hours.
FIG. 2 represents all the results obtained for each molecule assessed in 2 or 3 experiments done in triplicate. Reproducibility between the different experiments is good and similar to data described in the literature.

DLD-1 cells = assay: Colon cancer cell growth, BrdU incorporation, DLD-1 cells; format: cell-based, human; conditions: for effect on cell growth at high doses (in words) / inhibition at 10000 µM: 10 mM; for effect on cell growth at high doses (in words): differences among groups not statistically significant; for inhibition at 500 µM / inhibition at 1000 µM / inhibition at 2500 µM / inhibition at 5000 µM / inhibition at 10000 µM: Homo sapiens, BrdU; for inhibition at 500 µM: 0.5 mM; for inhibition at 500 µM / inhibition at 1000 µM / inhibition at 2500 µM / inhibition at 5000 µM / inhibition at 10000 µM / effect on cell growth (in words): DLD-1 cells, 48 hours; for inhibition at 1000 µM: 1 mM; for inhibition at 2500 µM: 2.5 mM; for inhibition at 5000 µM: 5 mM; for effect on cell growth (in words): 0.5-10 mM
Procedure: (§1) The following substances (i e 20, 34, 35, 39 and 40) were tested for their ability to modulate colon cancer cell growth. For this purpose, three human colon carcinoma cell lines (i.e. HT-29, HT-115 and DLD-1) were used. These cell types were selected on the basis of the cyclooxigenase-2 (COX-2) expression. Indeed. HT-115 cells express a biologically active COX-2, HT-29 cells express a non-functional COX-2 isoform, and DLD-1 are COX-2-deficient cells.
HT-29 and DLD-1 cells were cultured in McCoy and RPMI1640 media respectively, supplemented with 10% fetal bovine serum (FBS), 1% penicillin/streptomycin (P/S) and […] gentamycin. HT-115 were cultured in DMEM medium supplemented with 15% FBS and 1% P/S. Cells were maintained in a humidified Incubator at 37° C., in the presence of 5% CO2.
For cell growth assays, single-cell suspensions were plated at 2×10^3 cells/well (4×10^3 cells/well for HT115) in 96-well culture dishes in medium containing 0.5% FBS and allowed to adhere. The non-adherent cells were then removed, and fresh medium containing 0.5% FBS was added into each well. Cells were cultured in the presence or absence of the specified substances. Each substance was dissolved as a 25 mM stock solution in culture medium containing 0.5% FBS, and the pH of each stock solution was adjusted to 7.4, if necessary, with NaOH. Substances were used at a final concentration ranging from 0.5 to 10 mM.
(§2) Cell proliferation was determined by measuring the incorporation of 5-bromo-2′-deoxyuridine (BrdU) into DNA using a commercially available cell proliferation kit (Roche Diagnostics, Monza, Italy). BrdU was added to the cell cultures during the last 6 hours of incubation, and the level of BrdU-positive cells was assessed after 48 h culture by enzyme-linked immunosorbent assay (ELISA). Optical density (OD) was determined at 450 nm using an ELISA reader. Experiments were performed in triplicate and the results are reported as the mean t standard deviation (SD).
Cells were cultured in the presence or absence of the compounds, and cell growth was then assessed by the colorimetric (BrdU) assay after 48 hours culture.

HT-29 cells = assay: Colon cancer cell growth, BrdU incorporation, HT-29 cells; format: cell-based, human; conditions: 0.5-10 mM, 48 hours
Procedure: (§3) FIG. 3 and FIG. 4: Effect of the specified substances on the proliferation of human colon carcinoma cell lines (i.e. HT29, HT 115 and DLDI). Cells were treated with increasing concentrations of substances (0.5-10 mM)) for 48 hours and the proliferation was determined by using a colorimetric assay for the measurement of BrdU incorporation. Optical density (OD) was determined at 450 nm using an ELISA reader.
as §1, with “cells. […]” for “cells.”
as §2, with “Experiments were performed in triplicate and the results are reported as the mean t standard deviation (SD).” left out

HT-115 cells = assay: Colon cancer cell growth, BrdU incorporation, HT-115 cells; format: cell-based, human; conditions: 0.5-10 mM, 48 hours
Procedure: as §3
as §1, with “cells. […]” for “cells.”
as §2, with “Experiments were performed in triplicate and the results are reported as the mean t standard deviation (SD).” left out

Compound	increase of the reporter gene activity (PPARγ activity) (PPARγ; 1 mM) [fold]	effect on cell growth at high doses (in words) (DLD-1 cells)	inhibition at 500 µM (DLD-1 cells) [%]	inhibition at 1000 µM (DLD-1 cells) [%]	inhibition at 2500 µM (DLD-1 cells) [%]	inhibition at 5000 µM (DLD-1 cells) [%]	inhibition at 10000 µM (DLD-1 cells) [%]	effect on cell growth (in words) (DLD-1 cells)	increase of the reporter gene activity (PPARγ activity) (PPARγ; 30 mM, positive control) [fold]	effect on cell growth (in words) (HT-29 cells)	effect on cell growth (in words) (HT-115 cells)	significance of cell growth inhibition (in words) (DLD-1 cells; final concentration of 5 or 10 mM, cell line not specified)
CCOC(Cc1ccc(N)cc1)C(=O)O (racemic) [Compound 39, (±)-2-ethoxy 3-(4′-aminophenyl)-propionic acid]	2.73±0.31	slightly reduced the cell growth	1.6	3.3	8.2	11.5	12.8	–	–	–	–	–
COC(Cc1ccc(N)cc1)C(=O)O (racemic) [Compound 34, (±)-2-methoxy-3-(4′-aminophenyl)-propionic acid]	4.8±0.71	slightly reduced the cell growth	0	3.6	1.8	3.6	15.1	–	–	–	–	–
CCOC(Cc1cccc(N)c1)C(=O)O (racemic) [Compound 40, (±)-2-ethoxy-3-(3′-aminophenyl)-propanoic acid]	3.4±0.97	–	2	0	0	0	2.7	no inhibition in cell growth	–	–	–	–
Nc1ccc(O)c(C(=O)O)c1 [Compound 5-ASA, 5-amino salicylic acid, reference compound]	–	–	–	–	–	–	–	–	2.8±0.7	–	–	–
COC(Cc1cccc(N)c1)C(=O)O (racemic) [Compound 35, (±)-2-methoxy-3-(3′-aminophenyl)-propionic acid]	2.64±0.40	–	0	3.2	1.6	6.4	4.8	no inhibition in cell growth	–	–	–	–
Nc1cccc(CC(O)C(=O)O)c1 (racemic) [Compound 20, (±)-2-hydroxy-3-(3′-aminophenyl)-propanoic acid]	–	–	4.3	12.8	16.2	25.6	47	marked anti-proliferative effect in a dose-dependent fashion	–	marked anti-proliferative effect in a dose-dependent fashion	marked anti-proliferative effect in a dose-dependent fashion	significantly inhibit cell growth
